Our source for the Ki values is PMC3776780, “Dual p38/JNK Mitogen Activated Protein Kinase Inhibitors Prevent Ozone-Induced Airway Hyperreactivity in Guinea Pigs” (PLoS ONE, 2013).

One may read the Ki as a dissociation constant, usually derived from enzyme kinetics or from competition with a known ligand.

What all share (test): spectrophotometric coupled-enzyme kinase inhibition assay
What all share (format): biochemical

For one test, the target named is IGF1R (Homo sapiens, UniProt P08069). As to conditions: read-out: Ki or IC50 IGF1R. As to the method: (§1) Affinity was measured using a kinase inhibition assay. Compounds were assayed for the inhibition of various kinases using a modification of a spectrophotometric coupled-enzyme assay. In this assay, a fixed concentration of activated kinase (10–40 nM) was incubated with various concentrations of a potential inhibitor dissolved in DMSO for 10 minutes at 30°C in a buffer containing 0.1 M HEPES, pH 7.5, containing 10 mM MgCl2, 2.5 mM phosphoenolpyruvate, 200 µM NADH, 2 mM DTT, 30 µg/mL pyruvate kinase, 10 µg/mL lactate dehydrogenase, and 200 µM–500 µM EGF receptor peptide. The EGF receptor peptide has the sequence […]. The reaction was initiated by the addition of ATP equal to the ATP Km of the kinase, and the assay plate is inserted into the spectrophotometer’s assay plate compartment that was maintained at 30°C. The decrease of absorbance at 340 nm was monitored as a function of time for 10 minutes. The rate data as a function of inhibitor concentration was either fit as an IC50 or to a competitive inhibition kinetic model to determine the compound Ki (see table 1).

For another test, the target named is CDK2 (Homo sapiens, UniProt P24941). As to conditions: read-out: Ki or IC50 CDK2. The procedure:
as §1

The next test concerns the target T1, PRAK (Homo sapiens, UniProt Q8IW41).
T1 sequence (Q8IW41 1-473): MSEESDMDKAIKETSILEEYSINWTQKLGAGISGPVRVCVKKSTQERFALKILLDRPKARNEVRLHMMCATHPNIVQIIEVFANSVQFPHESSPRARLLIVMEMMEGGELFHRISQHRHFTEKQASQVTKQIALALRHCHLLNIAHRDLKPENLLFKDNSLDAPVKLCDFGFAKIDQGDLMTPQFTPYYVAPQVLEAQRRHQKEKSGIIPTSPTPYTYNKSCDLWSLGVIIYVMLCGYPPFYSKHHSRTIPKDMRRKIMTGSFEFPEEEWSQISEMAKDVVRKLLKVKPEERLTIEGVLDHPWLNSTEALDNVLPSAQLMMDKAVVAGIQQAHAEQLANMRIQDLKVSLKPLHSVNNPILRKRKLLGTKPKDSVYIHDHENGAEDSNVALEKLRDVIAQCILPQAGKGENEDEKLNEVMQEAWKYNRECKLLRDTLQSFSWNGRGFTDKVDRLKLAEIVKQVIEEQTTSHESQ
Conditions: read-out: Ki or IC50 PRAK. The procedure:
as §1

Another test deals with T2, JAK3 (Homo sapiens, UniProt P52333).
T2 sequence (P52333 1-1124): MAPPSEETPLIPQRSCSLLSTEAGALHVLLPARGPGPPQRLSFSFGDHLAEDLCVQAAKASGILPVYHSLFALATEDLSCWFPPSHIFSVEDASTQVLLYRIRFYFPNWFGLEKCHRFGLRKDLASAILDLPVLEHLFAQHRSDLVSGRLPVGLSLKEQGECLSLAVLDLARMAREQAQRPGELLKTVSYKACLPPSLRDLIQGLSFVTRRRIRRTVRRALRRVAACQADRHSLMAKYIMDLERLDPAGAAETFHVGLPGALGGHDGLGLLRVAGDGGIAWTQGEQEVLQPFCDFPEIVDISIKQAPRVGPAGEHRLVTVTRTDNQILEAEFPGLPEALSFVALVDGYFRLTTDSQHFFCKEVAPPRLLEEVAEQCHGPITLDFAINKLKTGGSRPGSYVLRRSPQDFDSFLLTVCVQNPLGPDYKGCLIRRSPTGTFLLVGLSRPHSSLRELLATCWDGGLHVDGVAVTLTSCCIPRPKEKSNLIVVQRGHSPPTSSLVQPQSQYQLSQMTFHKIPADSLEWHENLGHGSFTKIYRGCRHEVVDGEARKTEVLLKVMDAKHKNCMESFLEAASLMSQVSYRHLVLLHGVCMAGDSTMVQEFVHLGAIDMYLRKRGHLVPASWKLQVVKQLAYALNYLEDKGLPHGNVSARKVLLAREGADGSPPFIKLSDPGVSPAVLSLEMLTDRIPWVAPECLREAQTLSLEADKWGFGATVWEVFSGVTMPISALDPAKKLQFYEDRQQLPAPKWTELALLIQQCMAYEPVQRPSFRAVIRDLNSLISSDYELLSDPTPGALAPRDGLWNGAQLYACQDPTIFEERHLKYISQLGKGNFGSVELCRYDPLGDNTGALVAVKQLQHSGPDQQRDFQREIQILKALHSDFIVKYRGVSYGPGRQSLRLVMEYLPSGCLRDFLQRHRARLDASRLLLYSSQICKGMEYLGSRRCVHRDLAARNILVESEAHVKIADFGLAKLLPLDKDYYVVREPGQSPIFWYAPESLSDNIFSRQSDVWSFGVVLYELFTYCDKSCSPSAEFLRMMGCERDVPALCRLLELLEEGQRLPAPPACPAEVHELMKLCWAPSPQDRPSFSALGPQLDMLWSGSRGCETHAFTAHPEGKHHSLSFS
As to conditions: read-out: Ki or IC50 JAK3. As to the method: as §1

The next test deals with JNK1 (Homo sapiens, UniProt P45983). Conditions: ATP equal to Km, 30°C. As to the method: as §1
For a further test, the target named is T3, MKK6 (Homo sapiens, UniProt P52564).
T3 sequence (P52564 1-334): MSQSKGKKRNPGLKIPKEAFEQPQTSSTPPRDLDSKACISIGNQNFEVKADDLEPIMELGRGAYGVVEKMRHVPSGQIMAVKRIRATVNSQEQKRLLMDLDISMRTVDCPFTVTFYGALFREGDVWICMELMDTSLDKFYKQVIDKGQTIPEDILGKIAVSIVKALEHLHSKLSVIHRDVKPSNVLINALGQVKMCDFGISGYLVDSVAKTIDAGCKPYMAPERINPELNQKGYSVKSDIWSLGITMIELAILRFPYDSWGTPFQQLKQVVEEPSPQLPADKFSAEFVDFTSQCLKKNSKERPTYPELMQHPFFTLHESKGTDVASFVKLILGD
As to conditions: read-out: Ki or IC50 MKK6. The procedure:
as §1

Another test has as its target MAPKAP2 (Homo sapiens, UniProt P49137). As to conditions: read-out: Ki or IC50 MAPKAP2. As to the method:
as §1

Another test addresses ERK2 (Homo sapiens, UniProt P28482). As to conditions: read-out: Ki or IC50 ERK2. The procedure:
as §1

The next test addresses PIM1 (Homo sapiens, UniProt P11309). As to conditions: read-out: Ki or IC50 PIM1. As to the method:
as §1

The next test has as its target PKA (Homo sapiens, UniProt P17612). Conditions: read-out: Ki or IC50 PKA. As to the method:
as §1

Sequence of PIM1 (P11309 whole entry, species assumed): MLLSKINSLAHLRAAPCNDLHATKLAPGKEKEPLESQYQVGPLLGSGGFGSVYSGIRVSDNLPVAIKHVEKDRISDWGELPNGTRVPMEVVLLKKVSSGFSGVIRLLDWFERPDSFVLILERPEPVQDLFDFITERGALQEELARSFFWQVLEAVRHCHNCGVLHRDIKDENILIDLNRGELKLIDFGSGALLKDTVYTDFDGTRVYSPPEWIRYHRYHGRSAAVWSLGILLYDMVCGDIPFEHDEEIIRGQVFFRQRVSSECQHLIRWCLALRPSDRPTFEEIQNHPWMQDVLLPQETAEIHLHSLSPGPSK
Sequence of IGF1R (P08069 31-1367, species assumed): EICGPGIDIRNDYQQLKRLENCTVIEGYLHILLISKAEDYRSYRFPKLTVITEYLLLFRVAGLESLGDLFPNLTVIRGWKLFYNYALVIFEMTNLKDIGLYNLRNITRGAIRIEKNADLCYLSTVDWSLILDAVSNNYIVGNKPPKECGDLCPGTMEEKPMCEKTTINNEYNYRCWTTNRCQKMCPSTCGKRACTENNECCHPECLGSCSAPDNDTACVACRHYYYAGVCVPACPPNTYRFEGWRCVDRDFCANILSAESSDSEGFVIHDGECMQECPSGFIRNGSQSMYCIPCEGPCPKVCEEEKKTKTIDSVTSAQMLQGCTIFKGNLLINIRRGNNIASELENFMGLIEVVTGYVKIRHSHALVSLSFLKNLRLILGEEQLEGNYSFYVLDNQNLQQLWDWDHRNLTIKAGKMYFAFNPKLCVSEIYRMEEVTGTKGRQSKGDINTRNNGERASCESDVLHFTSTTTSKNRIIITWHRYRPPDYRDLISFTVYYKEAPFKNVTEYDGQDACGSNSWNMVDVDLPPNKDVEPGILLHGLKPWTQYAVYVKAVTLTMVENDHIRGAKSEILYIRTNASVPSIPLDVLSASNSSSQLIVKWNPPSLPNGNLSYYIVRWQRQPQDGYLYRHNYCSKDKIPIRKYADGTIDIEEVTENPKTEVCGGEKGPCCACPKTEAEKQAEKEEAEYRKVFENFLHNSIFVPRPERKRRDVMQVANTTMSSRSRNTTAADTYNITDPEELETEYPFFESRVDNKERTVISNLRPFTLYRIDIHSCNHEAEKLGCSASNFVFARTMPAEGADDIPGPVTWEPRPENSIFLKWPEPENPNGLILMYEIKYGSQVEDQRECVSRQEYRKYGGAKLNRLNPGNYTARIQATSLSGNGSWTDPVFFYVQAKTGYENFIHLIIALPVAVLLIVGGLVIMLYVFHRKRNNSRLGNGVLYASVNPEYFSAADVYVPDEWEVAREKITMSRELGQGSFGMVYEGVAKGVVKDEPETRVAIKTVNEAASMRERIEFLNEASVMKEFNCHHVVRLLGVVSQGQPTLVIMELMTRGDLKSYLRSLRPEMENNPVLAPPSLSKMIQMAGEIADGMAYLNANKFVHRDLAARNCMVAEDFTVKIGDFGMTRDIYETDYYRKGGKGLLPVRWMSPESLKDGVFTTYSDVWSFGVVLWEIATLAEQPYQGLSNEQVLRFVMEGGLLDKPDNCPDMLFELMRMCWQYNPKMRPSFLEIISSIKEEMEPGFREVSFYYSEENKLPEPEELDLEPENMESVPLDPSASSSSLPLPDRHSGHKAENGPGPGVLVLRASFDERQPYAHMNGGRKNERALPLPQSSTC
Sequence of ERK2 (P28482 whole entry, species assumed): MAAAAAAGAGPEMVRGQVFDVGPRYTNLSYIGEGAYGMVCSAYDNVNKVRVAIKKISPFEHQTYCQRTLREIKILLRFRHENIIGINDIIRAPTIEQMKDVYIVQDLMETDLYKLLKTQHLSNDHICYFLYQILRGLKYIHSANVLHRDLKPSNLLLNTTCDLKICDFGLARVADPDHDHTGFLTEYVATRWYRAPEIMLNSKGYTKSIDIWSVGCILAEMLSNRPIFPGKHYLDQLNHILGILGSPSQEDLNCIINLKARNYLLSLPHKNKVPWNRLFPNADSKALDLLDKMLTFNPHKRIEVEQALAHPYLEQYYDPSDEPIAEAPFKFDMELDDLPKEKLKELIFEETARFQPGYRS
Sequence of JNK1 (P45983 whole entry, species assumed): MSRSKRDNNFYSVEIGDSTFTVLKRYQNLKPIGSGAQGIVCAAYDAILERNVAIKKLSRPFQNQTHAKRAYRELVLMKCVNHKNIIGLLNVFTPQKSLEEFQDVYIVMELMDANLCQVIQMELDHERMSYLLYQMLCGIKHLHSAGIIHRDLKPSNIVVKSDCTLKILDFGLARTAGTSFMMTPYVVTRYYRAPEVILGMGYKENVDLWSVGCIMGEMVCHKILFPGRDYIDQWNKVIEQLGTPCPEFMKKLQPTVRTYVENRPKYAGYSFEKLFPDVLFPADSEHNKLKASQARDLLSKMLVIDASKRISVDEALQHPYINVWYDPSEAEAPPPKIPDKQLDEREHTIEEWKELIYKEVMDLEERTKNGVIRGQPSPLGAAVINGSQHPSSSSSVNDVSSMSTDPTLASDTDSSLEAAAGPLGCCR
Sequence of MAPKAP2 (P49137 whole entry): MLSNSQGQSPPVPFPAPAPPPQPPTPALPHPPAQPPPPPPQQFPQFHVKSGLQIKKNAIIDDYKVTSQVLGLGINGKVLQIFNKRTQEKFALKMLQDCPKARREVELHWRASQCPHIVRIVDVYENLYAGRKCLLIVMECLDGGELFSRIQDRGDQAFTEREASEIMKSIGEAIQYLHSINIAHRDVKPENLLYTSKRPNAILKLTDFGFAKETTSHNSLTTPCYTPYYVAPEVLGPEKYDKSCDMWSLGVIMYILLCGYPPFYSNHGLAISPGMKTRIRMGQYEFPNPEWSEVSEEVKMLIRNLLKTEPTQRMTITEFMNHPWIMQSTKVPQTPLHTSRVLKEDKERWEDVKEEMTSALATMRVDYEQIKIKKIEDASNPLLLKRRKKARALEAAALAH

On to `OC[C@@H]1CCCN1Cc1onc(-c2ccc(F)cc2)c1-c1ccnc(NC2CCCCC2)n1` [V-05-014], for which the Ki at IGF1R is over 1 µM; at CDK2 it was over 1 µM; at PRAK, over 1 µM; at JAK3, over 1 µM; at JNK1 it was 0.3 µM; at MKK6, over 1 µM. In addition, the Ki at MAPKAP2, on ERK2, on PIM1 and on PKA was over 1 µM each time.

Regarding `Fc1ccc(-c2noc(CN3CCCCC3)c2-c2ccnc(NC3CCCCC3)n2)cc1` [V-05-015], the Ki is over 1 µM at IGF1R; over 1 µM on CDK2; over 1 µM on PRAK; over 1 µM at JAK3; 0.12 µM on JNK1; over 1 µM on MKK6. Besides, the inhibitory constant (Ki) at MAPKAP2, at ERK2, on PIM1 and at PKA was over 1 µM in each case.

Turning to `OC1CCN(Cc2onc(-c3ccc(F)cc3)c2-c2ccnc(NC3CCCCC3)n2)CC1` [V-05-013], the inhibitory constant (Ki) at IGF1R was over 1 µM; on CDK2, over 1 µM; on PRAK it was over 1 µM; at JAK3, over 1 µM; on JNK1 it was 0.17 µM; at MKK6, over 1 µM. The inhibition constant Ki at MAPKAP2, on ERK2, at PIM1 and on PKA was over 1 µM throughout.
